Experimental data from the supplement of paper PMC10307832.

Experiments:
Assay in all cases: relative viability (nuclei count vs DMSO), 5 days (fraction); higher = more cells survive
LCLC-97TM1 = tested on: LCLC-97TM1
Summary of the method: (§1)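 Nuclei were stained with Hoechst during a one-step fixation (final 0.05% Triton X-100, 1% formaldehyde, 1 ug/ml Hoechst) carried out 5 days after dosing, then counted on 4× images. The cells, lung cancer lines in 1536-well plates, had been dosed by pin tool the day after seeding with one drug alone or a fixed anchor-drug dose plus five library-drug doses (not always all listed) in √10 steps. Relative viability is the nuclei count in treated wells divided by that in vehicle wells, and each value is the median of duplicate plates.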

NCI-H460 = tested on: NCI-H460
Summary of the method: as §1

NCI-H520 = tested on: NCI-H520
Summary of the method: as §1

PC-3 [JPC-3] = tested on: PC-3 [JPC-3]
Summary of the method: as §1

NCI-H322M = tested on: NCI-H322M
Summary of the method: as §1

NCI-H838 = tested on: NCI-H838
Summary of the method: as §1

NCI-H1915 = tested on: NCI-H1915
Summary of the method: as §1

NCI-H1792 = tested on: NCI-H1792
Summary of the method: as §1

EKVX = tested on: EKVX
Summary of the method: as §1

NCI-H1437 = tested on: NCI-H1437
Summary of the method: as §1

NCI-H1666 = tested on: NCI-H1666
Summary of the method: as §1

SK-LU-1 = tested on: SK-LU-1
Summary of the method: as §1

NCI-H1975 = tested on: NCI-H1975
Summary of the method: as §1

NCI-H1650 = tested on: NCI-H1650
Summary of the method: as §1

NCI-H647 = tested on: NCI-H647
Summary of the method: as §1

NCI-H727 = tested on: NCI-H727
Summary of the method: as §1

NCI-H441 = tested on: NCI-H441
Summary of the method: as §1

NCI-H23 = tested on: NCI-H23
Summary of the method: as §1

NCI-H596 = tested on: NCI-H596
Summary of the method: as §1

**Q.** For `CCNC(=O)c1noc(-c2cc(C(C)C)c(O)cc2O)c1-c1ccc(CN2CCOCC2)cc1` [Luminespib] + CC1(C)CCC(c2ccc(Cl)cc2)=C(CN2CCN(c3ccc(C(=O)NS(=O)(=O)c4ccc(N[C@H](CCN5CCOCC5)CSc5ccccc5)c(S(=O)(=O)C(F)(F)F)c4)cc3)CC2)C1 [Navitoclax] (partner 0.5 µM), which relative viability (LCLC-97TM1; first compound 0.002 µM) is on record?
**A.** 0.3

**Q.** And the relative viability (LCLC-97TM1; first compound 0.006325 µM)?
**A.** 0.538

**Q.** What about the relative viability (LCLC-97TM1; first compound 0.02 µM) of the same molecule?
**A.** 0.31

**Q.** What about the relative viability (LCLC-97TM1; first compound 0.06325 µM) of the same molecule?
**A.** 0.411

**Q.** And the relative viability (LCLC-97TM1; first compound 0.2 µM)?
**A.** 0.338

**Q.** And the relative viability (NCI-H460; first compound 0.002 µM)?
**A.** 1.23

**Q.** And the relative viability (NCI-H460; first compound 0.006325 µM)?
**A.** 1.01

**Q.** What about the relative viability (NCI-H460; first compound 0.02 µM) of the same molecule?
**A.** 0.0537

**Q.** And the relative viability (NCI-H460; first compound 0.06325 µM)?
**A.** 0.0176

**Q.** What about the relative viability (NCI-H460; first compound 0.2 µM) of the same molecule?
**A.** 0.0134

**Q.** And the relative viability (NCI-H520; first compound 0.002 µM)?
**A.** 1.01

**Q.** And the relative viability (NCI-H520; first compound 0.006325 µM)?
**A.** 1

**Q.** What about the relative viability (NCI-H520; first compound 0.02 µM) of the same molecule?
**A.** 1.1

**Q.** And the relative viability (NCI-H520; first compound 0.06325 µM)?
**A.** 0.177

**Q.** What about the relative viability (NCI-H520; first compound 0.2 µM) of the same molecule?
**A.** 0.167

**Q.** What about the relative viability (PC-3 [JPC-3]; first compound 0.002 µM) of the same molecule?
**A.** 0.818

**Q.** What about the relative viability (PC-3 [JPC-3]; first compound 0.006325 µM) of the same molecule?
**A.** 0.81

**Q.** What about the relative viability (PC-3 [JPC-3]; first compound 0.02 µM) of the same molecule?
**A.** 0.648

**Q.** What about the relative viability (PC-3 [JPC-3]; first compound 0.06325 µM) of the same molecule?
**A.** 0.847

**Q.** And the relative viability (PC-3 [JPC-3]; first compound 0.2 µM)?
**A.** 0.739

**Q.** What about the relative viability (NCI-H322M; first compound 0.002 µM) of the same molecule?
**A.** 1.14

**Q.** What about the relative viability (NCI-H322M; first compound 0.006325 µM) of the same molecule?
**A.** 1.09

**Q.** And the relative viability (NCI-H322M; first compound 0.02 µM)?
**A.** 1.02

**Q.** And the relative viability (NCI-H322M; first compound 0.06325 µM)?
**A.** 1.16

**Q.** And the relative viability (NCI-H322M; first compound 0.2 µM)?
**A.** 1.28

**Q.** What about the relative viability (NCI-H838; first compound 0.002 µM) of the same molecule?
**A.** 1.3

**Q.** What about the relative viability (NCI-H838; first compound 0.006325 µM) of the same molecule?
**A.** 1.12

**Q.** What about the relative viability (NCI-H838; first compound 0.02 µM) of the same molecule?
**A.** 1.07

**Q.** What about the relative viability (NCI-H838; first compound 0.06325 µM) of the same molecule?
**A.** 0.18

**Q.** And the relative viability (NCI-H838; first compound 0.2 µM)?
**A.** 0.193

**Q.** And the relative viability (NCI-H1915; first compound 0.002 µM)?
**A.** 0.8

**Q.** What about the relative viability (NCI-H1915; first compound 0.006325 µM) of the same molecule?
**A.** 0.793

**Q.** What about the relative viability (NCI-H1915; first compound 0.02 µM) of the same molecule?
**A.** 0.803

**Q.** And the relative viability (NCI-H1915; first compound 0.06325 µM)?
**A.** 0.808

**Q.** And the relative viability (NCI-H1915; first compound 0.2 µM)?
**A.** 0.775

**Q.** And the relative viability (NCI-H1792; first compound 0.002 µM)?
**A.** 0.535

**Q.** And the relative viability (NCI-H1792; first compound 0.006325 µM)?
**A.** 0.497

**Q.** What about the relative viability (NCI-H1792; first compound 0.02 µM) of the same molecule?
**A.** 0.539

**Q.** And the relative viability (NCI-H1792; first compound 0.06325 µM)?
**A.** 0.32

**Q.** What about the relative viability (NCI-H1792; first compound 0.2 µM) of the same molecule?
**A.** 0.216

**Q.** And the relative viability (EKVX; first compound 0.002 µM)?
**A.** 0.922

**Q.** And the relative viability (EKVX; first compound 0.006325 µM)?
**A.** 0.801

**Q.** And the relative viability (EKVX; first compound 0.02 µM)?
**A.** 0.677

**Q.** What about the relative viability (EKVX; first compound 0.06325 µM) of the same molecule?
**A.** 0.518

**Q.** What about the relative viability (EKVX; first compound 0.2 µM) of the same molecule?
**A.** 0.0817

**Q.** And the relative viability (NCI-H1437; first compound 0.002 µM)?
**A.** 1.06

**Q.** What about the relative viability (NCI-H1437; first compound 0.006325 µM) of the same molecule?
**A.** 1.07

**Q.** And the relative viability (NCI-H1437; first compound 0.02 µM)?
**A.** 1.16

**Q.** And the relative viability (NCI-H1437; first compound 0.06325 µM)?
**A.** 0.318

**Q.** And the relative viability (NCI-H1437; first compound 0.2 µM)?
**A.** 0.128

**Q.** And the relative viability (NCI-H1666; first compound 0.002 µM)?
**A.** 0.807

**Q.** What about the relative viability (NCI-H1666; first compound 0.006325 µM) of the same molecule?
**A.** 0.97

**Q.** What about the relative viability (NCI-H1666; first compound 0.02 µM) of the same molecule?
**A.** 1.29

**Q.** And the relative viability (NCI-H1666; first compound 0.06325 µM)?
**A.** 0.913

**Q.** And the relative viability (NCI-H1666; first compound 0.2 µM)?
**A.** 0.554

**Q.** What about the relative viability (SK-LU-1; first compound 0.002 µM) of the same molecule?
**A.** 0.887

**Q.** What about the relative viability (SK-LU-1; first compound 0.006325 µM) of the same molecule?
**A.** 0.478

**Q.** What about the relative viability (SK-LU-1; first compound 0.02 µM) of the same molecule?
**A.** 0.505

**Q.** What about the relative viability (SK-LU-1; first compound 0.06325 µM) of the same molecule?
**A.** 0.117

**Q.** And the relative viability (SK-LU-1; first compound 0.2 µM)?
**A.** 0.0911

**Q.** And the relative viability (NCI-H1975; first compound 0.002 µM)?
**A.** 1.17

**Q.** What about the relative viability (NCI-H1975; first compound 0.006325 µM) of the same molecule?
**A.** 1.06

**Q.** And the relative viability (NCI-H1975; first compound 0.02 µM)?
**A.** 0.877

**Q.** And the relative viability (NCI-H1975; first compound 0.06325 µM)?
**A.** 0.218

**Q.** What about the relative viability (NCI-H1975; first compound 0.2 µM) of the same molecule?
**A.** 0.142

**Q.** And the relative viability (NCI-H1650; first compound 0.002 µM)?
**A.** 1.31

**Q.** What about the relative viability (NCI-H1650; first compound 0.006325 µM) of the same molecule?
**A.** 1.11

**Q.** What about the relative viability (NCI-H1650; first compound 0.02 µM) of the same molecule?
**A.** 0.318

**Q.** What about the relative viability (NCI-H1650; first compound 0.06325 µM) of the same molecule?
**A.** 0.159

**Q.** What about the relative viability (NCI-H1650; first compound 0.2 µM) of the same molecule?
**A.** 0.144

**Q.** What about the relative viability (NCI-H647; first compound 0.002 µM) of the same molecule?
**A.** 1.23

**Q.** What about the relative viability (NCI-H647; first compound 0.006325 µM) of the same molecule?
**A.** 1.06

**Q.** And the relative viability (NCI-H647; first compound 0.02 µM)?
**A.** 1.18

**Q.** What about the relative viability (NCI-H647; first compound 0.06325 µM) of the same molecule?
**A.** 0.0943

**Q.** And the relative viability (NCI-H647; first compound 0.2 µM)?
**A.** 0.0973

**Q.** What about the relative viability (NCI-H727; first compound 0.002 µM) of the same molecule?
**A.** 0.43

**Q.** And the relative viability (NCI-H727; first compound 0.006325 µM)?
**A.** 0.449

**Q.** What about the relative viability (NCI-H727; first compound 0.02 µM) of the same molecule?
**A.** 0.408

**Q.** And the relative viability (NCI-H727; first compound 0.06325 µM)?
**A.** 0.218

**Q.** What about the relative viability (NCI-H727; first compound 0.2 µM) of the same molecule?
**A.** 0.27

**Q.** What about the relative viability (NCI-H441; first compound 0.002 µM) of the same molecule?
**A.** 0.714

**Q.** And the relative viability (NCI-H441; first compound 0.006325 µM)?
**A.** 0.648

**Q.** What about the relative viability (NCI-H441; first compound 0.02 µM) of the same molecule?
**A.** 0.626

**Q.** And the relative viability (NCI-H441; first compound 0.06325 µM)?
**A.** 0.121

**Q.** What about the relative viability (NCI-H441; first compound 0.2 µM) of the same molecule?
**A.** 0.161

**Q.** What about the relative viability (NCI-H23; first compound 0.002 µM) of the same molecule?
**A.** 1.08

**Q.** And the relative viability (NCI-H23; first compound 0.006325 µM)?
**A.** 0.793

**Q.** And the relative viability (NCI-H23; first compound 0.02 µM)?
**A.** 0.625

**Q.** And the relative viability (NCI-H23; first compound 0.06325 µM)?
**A.** 0.142

**Q.** What about the relative viability (NCI-H23; first compound 0.2 µM) of the same molecule?
**A.** 0.13

**Q.** What about the relative viability (NCI-H596; first compound 0.002 µM) of the same molecule?
**A.** 0.954

**Q.** And the relative viability (NCI-H596; first compound 0.006325 µM)?
**A.** 0.886

**Q.** What about the relative viability (NCI-H596; first compound 0.06325 µM) of the same molecule?
**A.** 0.936

**Q.** And the relative viability (NCI-H596; first compound 0.2 µM)?
**A.** 0.996
